The nature of assay [1]: Treatment of cardiovascular diseases. The class given is in vivo, human. As for the experimental part: The subjects were treated with sodium carbonate with about at least 2 g daily, with improvement occurring within short time, within about 1-2 weeks.
Assay [2] can be described thus: Treatment of skin diseases (psoriasis, neurodermatitis). It is filed as in vivo, human. As for the experimental part: The term skin diseases describes in particular psoriasis and neurodermatitis. Basically, in the case of psoriasis patients the inventive dosing schedule is very welcome, because it counterbalances the negative effects of very strong medications that are administered in such cases; these improve by 65-80% with the inventive dosing schedule.
The subjects were treated with sodium carbonate with about 2 g+daily, after which the normal effect is achieved as described above; 1-2 weeks.

For another assay, the system named is tumor tissue. The experiment in a line: Treatment of cancer under medical supervision.
The nature of assay [3]: Treatment of obesity, cellulitis, cellulite, acne.
Experimental: Test series 1: The subjects were treated with vitamins, trace elements (ZK), and/or natural medicines individually and in combination.
Alkaline saturation of the body, at plasma pH of a maximum of 8.5.
Assay [4] is described as follows: Treatment of acidosis, test series with and without Na.
Experimental: In order to restore the body rapidly and successfully, test series were performed with and without Na.
Test series 1: The subjects were treated with vitamins, trace elements, and/or natural medicines individually and in combination.
Where [5] appears, read: test series 2, at least 2 g daily.

Experimental for tumor tissue: The subjects were treated under medical supervision with antibiotics and vitamins, trace elements, and/or natural medicines individually and in combination.

In the case of `O=C([O-])[O-].[Na+].[Na+]` [sodium carbonate], the “time until improvement occurred” value in assay [1] (about at least 2 g daily) and in assay [4] (setting [5]) was 1-2 weeks in each case. The “uptake of mineral substances and natural medicines” value is “improved considerably” in assay [1] (cardiovascular diseases); “improved considerably” in the assay with tumor tissue (used internally and externally); “improved considerably” in assay [3] (test series 2); “improved considerably and obviously” in assay [4] (test series 2). The rehabilitation in assay [1] (cardiovascular diseases, followed by vitamins and trace elements) was 100%; in assay [3] (obesity, cellulitis, cellulite, acne), 95%. Also, in assay [2] (about 2 g+ daily), the “time until the normal effect is achieved” value is reported as 1-2 weeks. The considerable improvement entry in assay [2] (psoriasis or neurodermatitis patients) was “about 80%”. For the same molecule, the “time until tissue reacted perceptibly” value with tumor tissue (cancer, at least 2 g daily) is on record as 1-2 weeks. Further, the swelling reduced result in the assay on tumor tissue (cancer, statements made by the subjects) was “about 80%”. Further, in the assay with tumor tissue (cancer, to date), the “reduction in tumor size” value is “about 30%”. Also, in assay [3] (followed by high-dose vitamins and acids for several weeks, no yo-yo effect over about 2 years), the weight change entry was “extensive weight reduction”. Besides, in assay [3] (setting [5]), the “time until tissue responded perceptibly” value is on record as 1-2 weeks. The molecule also gave a successful in assay [4] (test series 2, followed by vitamins and trace elements) of 100%.

The record behind these values is patent US20160095894A1, “DIETETIC MULTI-COMPONENT SYSTEM” (priority 2011, published 2016).
